The values below come from ChEMBL document CHEMBL1932974, “Optimization of a novel kinase inhibitor scaffold for the dual inhibition of JAK2 and FAK kinases” (Bioorg Med Chem Lett, 2012).

Data set [1] concerns the target T1, Focal adhesion kinase 1 (Homo sapiens, UniProt Q05397). Put plainly: Inhibition of human recombinant FAK expressed in baculovirus expression system after 30 mins by time resolved fluorescence assay.
Data set [2] deals with T2, Tyrosine-protein kinase JAK2 (Homo sapiens, UniProt O60674). Put plainly: Inhibition of human recombinant JAK2 expressed in baculovirus expression system after 20 mins by time resolved fluorescence assay.
T2 sequence (O60674 whole entry): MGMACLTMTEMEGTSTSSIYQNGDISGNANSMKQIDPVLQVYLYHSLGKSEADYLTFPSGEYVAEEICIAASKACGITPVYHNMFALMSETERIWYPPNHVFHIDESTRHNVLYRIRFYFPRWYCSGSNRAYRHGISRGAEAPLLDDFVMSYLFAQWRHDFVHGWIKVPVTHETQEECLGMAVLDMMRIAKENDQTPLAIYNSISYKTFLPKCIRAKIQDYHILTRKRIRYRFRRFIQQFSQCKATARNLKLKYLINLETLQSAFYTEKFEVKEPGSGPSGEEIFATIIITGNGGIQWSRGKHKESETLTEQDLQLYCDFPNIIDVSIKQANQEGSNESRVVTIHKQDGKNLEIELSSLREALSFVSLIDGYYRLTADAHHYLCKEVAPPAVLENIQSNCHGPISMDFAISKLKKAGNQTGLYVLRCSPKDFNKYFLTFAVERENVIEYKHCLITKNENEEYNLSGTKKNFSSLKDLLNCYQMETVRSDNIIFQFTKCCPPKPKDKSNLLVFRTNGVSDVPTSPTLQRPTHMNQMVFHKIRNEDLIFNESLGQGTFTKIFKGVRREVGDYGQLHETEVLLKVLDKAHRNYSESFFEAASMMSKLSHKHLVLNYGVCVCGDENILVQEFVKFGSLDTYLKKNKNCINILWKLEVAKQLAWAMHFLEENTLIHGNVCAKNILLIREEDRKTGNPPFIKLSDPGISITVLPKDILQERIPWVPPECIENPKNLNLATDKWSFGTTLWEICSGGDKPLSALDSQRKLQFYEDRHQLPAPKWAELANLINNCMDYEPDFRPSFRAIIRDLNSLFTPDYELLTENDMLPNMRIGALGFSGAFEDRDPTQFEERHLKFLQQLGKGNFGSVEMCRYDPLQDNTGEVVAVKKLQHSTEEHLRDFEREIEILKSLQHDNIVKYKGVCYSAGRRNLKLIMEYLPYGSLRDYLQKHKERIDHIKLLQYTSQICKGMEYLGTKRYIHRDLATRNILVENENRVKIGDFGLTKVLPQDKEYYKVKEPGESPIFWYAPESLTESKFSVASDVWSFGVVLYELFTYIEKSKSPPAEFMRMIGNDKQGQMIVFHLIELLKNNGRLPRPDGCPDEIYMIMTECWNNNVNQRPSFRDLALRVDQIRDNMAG
The target in data set [3] is T2, Tyrosine-protein kinase JAK2. As to the kind of experiment: Inhibition of JAK2 in GM-CSF-stimulated human TF1 cells preincubated for 1 hr prior to challenge.
For data set [4], the target named is T1, Focal adhesion kinase 1. Put plainly: Inhibition of FAK in human 293GT cells after 1 hr by luminescence-based spectrophotometry. Format: cell-based.
The nature of data set [5]: Metabolic stability in rat liver microsomes. The conditions noted are these: read-out: Stability. Format: ADME, Microsome. In general terms: Microsomes from liver hold many membrane-bound enzymes, among them those of drug oxidation.
The nature of data set [6]: Metabolic stability in human liver microsomes. Format: ADME, Microsome. As to conditions: read-out: Stability.
Data set [7] in a line: Metabolic stability in dog liver microsomes. Format: ADME, Canis lupus familiaris, Microsome. The conditions noted are these: read-out: Stability.
Data set [8] in a line: Metabolic stability in mouse liver microsomes. Format: ADME, Microsome. The conditions noted are these: read-out: Stability.
In data set [9] the target is T3, Tyrosine-protein kinase JAK3 (Homo sapiens, UniProt P52333).
T3 sequence (P52333 whole entry): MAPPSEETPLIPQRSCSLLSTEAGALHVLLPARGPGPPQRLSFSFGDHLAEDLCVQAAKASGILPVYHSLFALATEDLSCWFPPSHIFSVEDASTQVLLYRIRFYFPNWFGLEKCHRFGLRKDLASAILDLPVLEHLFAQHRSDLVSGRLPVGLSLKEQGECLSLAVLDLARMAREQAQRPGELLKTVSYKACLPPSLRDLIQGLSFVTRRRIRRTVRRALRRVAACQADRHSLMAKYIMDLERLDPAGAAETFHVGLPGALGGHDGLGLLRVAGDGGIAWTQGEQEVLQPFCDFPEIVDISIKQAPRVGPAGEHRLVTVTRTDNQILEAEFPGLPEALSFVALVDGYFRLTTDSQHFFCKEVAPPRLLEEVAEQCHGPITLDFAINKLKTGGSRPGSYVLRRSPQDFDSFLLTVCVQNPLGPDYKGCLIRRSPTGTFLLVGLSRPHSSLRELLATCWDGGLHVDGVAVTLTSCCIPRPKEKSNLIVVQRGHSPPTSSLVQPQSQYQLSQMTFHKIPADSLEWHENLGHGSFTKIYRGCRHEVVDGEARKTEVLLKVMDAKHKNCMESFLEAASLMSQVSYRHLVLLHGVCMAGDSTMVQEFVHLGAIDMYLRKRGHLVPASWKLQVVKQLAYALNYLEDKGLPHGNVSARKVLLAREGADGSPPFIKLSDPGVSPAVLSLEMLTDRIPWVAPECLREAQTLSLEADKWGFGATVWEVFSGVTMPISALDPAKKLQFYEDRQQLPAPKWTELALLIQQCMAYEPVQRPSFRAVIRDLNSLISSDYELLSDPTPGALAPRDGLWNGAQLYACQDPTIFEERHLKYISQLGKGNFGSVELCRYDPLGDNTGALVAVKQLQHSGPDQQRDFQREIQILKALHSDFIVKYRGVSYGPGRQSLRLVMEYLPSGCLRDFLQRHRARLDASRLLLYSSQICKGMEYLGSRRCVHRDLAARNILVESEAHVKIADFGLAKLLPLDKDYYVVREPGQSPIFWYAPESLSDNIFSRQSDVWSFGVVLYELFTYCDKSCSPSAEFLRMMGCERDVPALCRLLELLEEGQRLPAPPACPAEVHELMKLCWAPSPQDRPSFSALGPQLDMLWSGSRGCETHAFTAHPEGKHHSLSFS
As to the kind of experiment: Inhibition of JAK3.

Data set [10] is described as follows: Volume of distribution in Sprague-Dawley rat at 1 mg/kg, iv. Format: ADME, organism-based. The arrangement: dose 1 mg/kg, route intravenous. As to conditions: in vivo.
The nature of data set [11]: Tmax in Sprague-Dawley rat at 5 mg/kg, po. Format: ADME, organism-based. The arrangement: dose 5 mg/kg, route oral. The conditions noted are these: in vivo.
Data set [12] is described as follows: AUC (0 to infinity) in Sprague-Dawley rat at 5 mg/kg, po. Format: ADME, organism-based. The arrangement: time infinity, dose 5 mg/kg, route oral. The conditions noted are these: plasma.
A short description of data set [13]: Half life in Sprague-Dawley rat at 1 mg/kg, iv. On the set-up: dose 1 mg/kg, route intravenous. As to conditions: in vivo. It is filed as ADME, organism-based.
The nature of data set [14]: AUC (0 to t) in Sprague-Dawley rat at 1 mg/kg, iv. Format: ADME, organism-based. The arrangement: dose 1 mg/kg, route intravenous. The conditions noted are these: plasma.
The nature of data set [15]: Oral bioavailability in Sprague-Dawley rat at 5 mg/kg. It is filed as ADME, organism-based. The conditions noted are these: in vivo.
A short description of data set [16]: Cmax in Sprague-Dawley rat at 5 mg/kg, po. On the set-up: dose 5 mg/kg, route oral. Format: ADME, organism-based. The conditions noted are these: in vivo.
Data set [17] is described as follows: Clearance in Sprague-Dawley rat at 1 mg/kg, iv. Format: ADME, organism-based. The arrangement: dose 1 mg/kg, route intravenous. The conditions noted are these: in vivo.
The nature of data set [18]: Plasma protein binding in mouse. Format: ADME, cell-free. The conditions noted are these: read-out: PPB (converted).
Data set [19] has as its system Mus musculus. Put plainly: Inhibition of FAK phosphorylation in human CWR22 cells xenografted in mouse at 55 mg/kg, po administered as a single dose measured at 2 hrs. It is filed as functional. As to conditions: CWR22, 2 h.
Data set [20] deals with Mus musculus. Put plainly: Inhibition of JAK2-mediated STAT3 phosphorylation in human CWR22 cells xenografted mouse at 55 mg/kg, po administered as a single dose measured up to 12 hrs. Format: functional. The conditions noted are these: CWR22, 12 h.
Data set [21] concerns the target Insulin receptor (Homo sapiens, UniProt P06213). As to the kind of experiment: Inhibition of insulin receptor.

T1 sequence (Q05397 whole entry): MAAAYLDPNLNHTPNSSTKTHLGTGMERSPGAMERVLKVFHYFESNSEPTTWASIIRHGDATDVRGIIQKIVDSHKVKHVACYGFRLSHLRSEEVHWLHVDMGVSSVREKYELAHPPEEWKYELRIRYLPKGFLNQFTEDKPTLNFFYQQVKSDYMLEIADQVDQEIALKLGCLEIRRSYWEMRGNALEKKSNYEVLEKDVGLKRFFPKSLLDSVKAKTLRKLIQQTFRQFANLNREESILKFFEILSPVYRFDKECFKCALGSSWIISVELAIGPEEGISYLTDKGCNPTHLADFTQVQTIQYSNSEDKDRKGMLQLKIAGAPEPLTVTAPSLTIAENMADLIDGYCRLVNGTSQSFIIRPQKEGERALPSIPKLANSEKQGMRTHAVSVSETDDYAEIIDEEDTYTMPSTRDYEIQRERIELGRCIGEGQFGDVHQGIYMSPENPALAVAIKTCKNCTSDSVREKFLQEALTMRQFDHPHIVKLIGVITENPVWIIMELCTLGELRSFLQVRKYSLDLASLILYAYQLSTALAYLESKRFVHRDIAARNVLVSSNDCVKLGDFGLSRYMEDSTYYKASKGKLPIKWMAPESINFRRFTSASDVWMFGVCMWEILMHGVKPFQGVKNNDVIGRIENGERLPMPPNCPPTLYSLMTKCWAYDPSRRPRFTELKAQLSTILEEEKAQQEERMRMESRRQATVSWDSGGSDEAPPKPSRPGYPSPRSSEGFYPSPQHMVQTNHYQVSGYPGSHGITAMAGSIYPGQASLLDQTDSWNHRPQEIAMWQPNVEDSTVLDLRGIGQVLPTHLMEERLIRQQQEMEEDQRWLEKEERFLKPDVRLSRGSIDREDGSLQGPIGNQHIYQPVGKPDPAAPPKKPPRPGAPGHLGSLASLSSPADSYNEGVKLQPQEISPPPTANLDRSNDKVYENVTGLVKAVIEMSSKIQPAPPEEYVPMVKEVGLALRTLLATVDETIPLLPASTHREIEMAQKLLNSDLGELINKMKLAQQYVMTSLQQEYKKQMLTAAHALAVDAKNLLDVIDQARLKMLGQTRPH
Sequence of Insulin receptor (P06213 28-758 limits assumed): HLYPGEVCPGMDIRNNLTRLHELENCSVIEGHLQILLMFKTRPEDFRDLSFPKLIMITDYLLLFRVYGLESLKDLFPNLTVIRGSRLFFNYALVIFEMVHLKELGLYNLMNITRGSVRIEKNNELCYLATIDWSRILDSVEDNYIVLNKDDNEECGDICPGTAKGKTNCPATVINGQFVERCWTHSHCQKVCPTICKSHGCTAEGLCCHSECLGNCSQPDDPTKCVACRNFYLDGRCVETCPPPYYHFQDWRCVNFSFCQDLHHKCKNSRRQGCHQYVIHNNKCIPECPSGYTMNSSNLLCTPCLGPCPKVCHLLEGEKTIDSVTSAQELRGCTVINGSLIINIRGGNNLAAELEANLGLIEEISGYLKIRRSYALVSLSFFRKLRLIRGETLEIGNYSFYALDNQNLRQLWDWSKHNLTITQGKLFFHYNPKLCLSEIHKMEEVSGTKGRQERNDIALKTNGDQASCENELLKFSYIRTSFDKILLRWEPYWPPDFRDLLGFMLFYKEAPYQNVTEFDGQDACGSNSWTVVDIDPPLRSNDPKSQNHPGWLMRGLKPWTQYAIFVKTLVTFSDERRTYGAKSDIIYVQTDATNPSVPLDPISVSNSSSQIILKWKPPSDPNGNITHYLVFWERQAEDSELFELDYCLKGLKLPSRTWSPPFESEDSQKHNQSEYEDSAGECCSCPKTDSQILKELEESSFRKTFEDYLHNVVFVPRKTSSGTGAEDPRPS
Sequence of Insulin receptor (P06213 763-1382 limits assumed): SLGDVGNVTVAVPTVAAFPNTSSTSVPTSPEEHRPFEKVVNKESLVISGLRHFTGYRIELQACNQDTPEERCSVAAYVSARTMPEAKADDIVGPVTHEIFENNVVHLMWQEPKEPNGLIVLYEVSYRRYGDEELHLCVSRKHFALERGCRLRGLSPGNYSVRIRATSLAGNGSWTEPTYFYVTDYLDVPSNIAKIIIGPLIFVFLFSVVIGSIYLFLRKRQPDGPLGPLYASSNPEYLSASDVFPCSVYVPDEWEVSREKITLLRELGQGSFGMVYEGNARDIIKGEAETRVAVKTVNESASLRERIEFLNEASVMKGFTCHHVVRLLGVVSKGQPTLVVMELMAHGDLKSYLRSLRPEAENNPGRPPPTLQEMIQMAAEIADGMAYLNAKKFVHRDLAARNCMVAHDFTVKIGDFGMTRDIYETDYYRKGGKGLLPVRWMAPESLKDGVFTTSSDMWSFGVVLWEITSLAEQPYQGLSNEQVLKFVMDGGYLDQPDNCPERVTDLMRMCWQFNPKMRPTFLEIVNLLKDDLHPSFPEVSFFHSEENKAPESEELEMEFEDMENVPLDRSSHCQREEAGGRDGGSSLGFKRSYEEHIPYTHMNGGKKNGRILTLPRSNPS

Usually IC50 stands for the concentration needed to halve the response being measured. On to `COc1cc(Nc2ncc3ccc(-c4ccccc4)n3n2)cc(OC)c1OC`, for which the concentration for half-maximal inhibition (IC50) in data set [1] was determined as 17 nM; in data set [2], 0.2 nM.
The corresponding values for `COc1cc(C2CCN(CC(N)=O)CC2)ccc1Nc1ncc2ccc(-c3ccccc3OC)n2n1` are 21 nM and 250 nM.
With `COc1ccccc1-c1ccc2cnc(Nc3ccc(C4CCN(CC(N)=O)CC4)cc3)nn12`, the IC50 was 41 nM in data set [3], 55 nM in [1], 690 nM in data set [4] and 0.6 nM in data set [2].
In the case of `CN(c1ccccc1-c1ccc2cnc(Nc3ccc(C4CCN(CC(N)=O)CC4)cc3)nn12)S(C)(=O)=O`, the IC50 was 15 nM in data set [3], 14 nM in data set [1], 610 nM in [4] and 2 nM in data set [2]. In addition, the half-life in [5] was 6 min; in [6] it was < 5 min; in data set [7] it was 11 min; in [8], 15 min.
`CC(C)(C)NS(=O)(=O)c1cccc(-c2ccc3cnc(Nc4ccc(C5CCN(CC(N)=O)CC5)cc4)nn23)c1`: the IC50 in data set [3] was 90 nM; in [1] it was 5.7 nM; in data set [4] it was 1340 nM; in [2], 0.64 nM.
The corresponding values for `COc1ccc(-c2ccc3cnc(Nc4ccc(C5CCN(CC(N)=O)CC5)cc4)nn23)cn1` are 62 nM, 39 nM, 1190 nM and 0.77 nM.
The corresponding values for `CS(=O)(=O)Nc1cccc(-c2ccc3cnc(Nc4ccc(C5CCN(CC(N)=O)CC5)cc4)nn23)c1` are 60 nM, 21 nM, 660 nM and 0.22 nM.
For `CN(c1cccc(-c2ccc3cnc(Nc4ccc(C5CCN(CC(N)=O)CC5)cc4)nn23)c1)S(C)(=O)=O` the same measures were 45 nM, 48 nM, > 10000 nM and 0.09 nM.
Regarding `NC(=O)CN1CCC(c2ccc(Nc3ncc4ccc(-c5cccc(CO)c5)n4n3)cc2)CC1`, the IC50 stood at 27 nM in [3], 33 nM in [1], 1390 nM in [4] and 0.27 nM in [2].
The corresponding values for `CS(=O)(=O)c1ccc(-c2ccc3cnc(Nc4ccc(C5CCN(CC(N)=O)CC5)cc4)nn23)cc1` are 29 nM, 114 nM, > 10000 nM and 0.22 nM.
The corresponding values for `CS(=O)(=O)c1cccc(-c2ccc3cnc(Nc4ccc(C5CCN(CC(N)=O)CC5)cc4)nn23)c1` are 58 nM, 25 nM, 1010 nM and 0.52 nM.
Consider `CN(c1ncccc1-c1ccc2cnc(Nc3ccc(C4CCN(CC(N)=O)CC4)cc3)nn12)S(C)(=O)=O`, for which the IC50 in data set [3] came out at 38 nM; in [1], 14 nM; in data set [4], 750 nM; in data set [2] it was 2.1 nM.
Consider `COc1cccnc1-c1ccc2cnc(Nc3ccc(C4CCN(CC(N)=O)CC4)cc3)nn12`, for which the half-maximal inhibitory concentration (IC50) in data set [3] was 1140 nM; in [1], 2040 nM; in [4], > 10000 nM; in data set [2] it was 16 nM.
For `NC(=O)CN1CCC(c2ccc(Nc3ncc4ccc(-c5ncccn5)n4n3)cc2)CC1`, the half-inhibitory concentration (IC50) in data set [1] was > 10000 nM; in [2] it was 85 nM.
Regarding `NC(=O)CN1CCC(c2ccc(Nc3ncc4ccc(-c5cnccn5)n4n3)cc2)CC1`, the IC50 in data set [3] was 282 nM; in [1], 551 nM; in data set [2], 8.9 nM.
For `NC(=O)CN1CCC(c2ccc(Nc3ncc4ccc(-c5cccc6c5OC(F)(F)O6)n4n3)cc2)CC1` the same measures were > 1000 nM, 122 nM and 13 nM.
On to `CN(C)Cc1ccc(-c2ccc3cnc(Nc4ccc(C5CCN(CC(N)=O)CC5)cc4)nn23)cc1`, for which the IC50 in data set [1] is > 1000 nM; in data set [2], 2900 nM.
As to `CS(=O)(=O)N1Cc2cccc(-c3ccc4cnc(Nc5ccc(C6CCN(CC(N)=O)CC6)cc5)nn34)c2C1`, in data set [1], the half-inhibitory concentration (IC50) was determined as 205 nM.
Consider `NC(=O)CN1CCC(c2ccc(Nc3ncc4ccc(-c5cccc6cccnc56)n4n3)cc2)CC1`, for which the IC50 is 170 nM in data set [3], 167 nM in data set [1] and 6.3 nM in data set [2].
On to `Cc1cc(-c2ccccc2N(C)S(C)(=O)=O)n2nc(Nc3ccc(C4CCN(CC(N)=O)CC4)cc3)ncc12`, for which the figures for the concentration for half-maximal inhibition (IC50) in data set [1] and in [4] were 11 nM and 1230 nM, respectively.
As a reminder, the Vd is a proportionality between amount in the body and measured concentration, not a real space. Higher therefore signals wide distribution into tissue. For orientation: Tmax means the time at which the peak concentration occurs. In general, AUC(0-inf) refers to the area under the concentration-time curve extrapolated to infinity. The low end stands for less exposure, the high end for more exposure. What is called AUC(0-t) is exposure summed from dosing to a finite time, without extrapolation to infinity. Read a low AUC(0-t) as less exposure. In general, bioavailability refers to the share of a dose that reaches the circulation, judged against a reference dose that is usually intravenous. High values mean good availability, low ones poor availability. As usually defined, the Cmax is the highest concentration seen after dosing. Usually clearance stands for the rate of elimination divided by the concentration. Read a low clearance as inefficient removal. The term inhibition in vivo denotes the change of the read-out against control, counted positive when it falls. The low end stands for a response near the control, the high end for a response far below the control. In the case of `CN(c1ccccc1-c1cc(Cl)c2cnc(Nc3ccc(C4CCN(CC(N)=O)CC4)cc3)nn12)S(C)(=O)=O`, the IC50 in data set [3] was 12 nM; in [9], 2.9 nM; in [1], 5 nM; in data set [4], 420 nM; in [2] it was 2.5 nM; in data set [21], 380 nM. The half-life in data set [5] is 21 min; in data set [6] it was 11 min; in data set [13], 60 min; in data set [7], 17 min; in [8], 26 min. Moreover, in [10], the Vd is 1.3 L/kg. For the same compound, the time to peak (Tmax) in [11] came out at 132 min. This compound yielded an AUC(0-inf) in data set [12] of 832 ng·h/mL. This compound gave an AUC(0-t) in data set [14] of 1320 ng·h/mL. Further, the bioavailability in data set [15] was 12%. In data set [16], the peak concentration (Cmax) is 185 ng/mL. This compound also registered a clearance in [17] of 14 mL/min/kg. For the same compound, the fraction unbound in data set [18] is 0.006. Moreover, the inhibition in vivo at 55 mg/kg in data set [19] and in data set [20] was > 75% throughout.
